Test results from patent US20220411448A1, “CHROMENE-4-ONE DERIVATIVES AS BRAIN-DERIVED NEUROTROPHIC FACTOR (BDNF) MIMETICS” (FLORATEK PHARMA AG, priority 2019, published 2022).

Legend:
[1] = system: organotypic hippocampal brain slices with IAA lesion; assay: Organotypic brain slices, iodoacetic acid injury: cell survival (MTT); format: cell-based, mouse; conditions: SND118 10 and 30 μM; SND124 30 μM; 7,8 DHF 10 μm; IAA 250 μM for 110 min
Method: Preparation of the organotypic brain slices were performed by decapitation of the P9/P10 mouse pups, removing skin and skull and immersing brains in slicing medium (Opti-MEM 1, […]). Brains were hemisected and hippocampi were isolated. Hippocampi were placed on the cutting disc of a McIlwain Tissue Chopper. […] hippocampal slices were chopped transversely. A number of 4 slices per hippocampus were placed on porous (0.4 μM) transparent membrane inserts (Millipore) and incubated for 1 h on ice in HBSS containing 10 mM glucose. Afterwards inserts were transferred to fresh 24-well plates containing 250-300 μl culture medium (50% MEM/EBSS, 25% horse serum, 25% CMF-HBSS, 25 mM glucose, 0.5% pen/strep). Slices were maintained at 37° C. and 5% CO2.
On DV15, brain slices were pretreated with SND derivatives test compounds and the reference 7,8DHF at various concentrations (between […]) for 30 min, followed by the addition of iodoacetic acid (IAA) at 250 μM for 110 min, when cell survival, MMP and toxicity were measured.
Cell survival was measured by the MTT assay. For the determination of mitochondrial membrane potential, treated organotypic brain slices were loaded with the mitochondrial fluorescent dye, tetramethylrhodamine methyl ester (TMRM) at a final concentration of 100 nM in PBS and incubated for 45 min at 37° C. The TMRM containing solution was aspirated and slices were transferred into new well plates containing the appropriate amount of PBS. Fluorescence was measured with a plate-reader (Cytation 5) using wavelengths of excitation and emission of 548 and 574 nm, respectively (area scan). Values were calculated as percent of control values (vehicle control). Toxicity of the treatment was measured by LDH. No toxicity was observed.

[2] = Metabolic stability in mouse plasma; format: in vitro ADME, CD1-mouse; conditions: 1 μM
Method: The compounds were incubated with plasma, and the collected samples were analyzed by UPLC/HR-MS to measure stability of the compounds.
Sample type: plasma; Species: CD1-mouse (male), human (mixed gender); Time points: 0, 20, 40, 60, 120 min;
Spiking solvent: 50% DMSO ( 1/100 to incubation); Quenching solvent: 2-fold volume of 100% ACN; Control: propanthelin bromide (human, mouse)
The study compounds were incubated with plasma as specified above. The collected samples were stored at −20 C until thawed at room temperature, centrifuged and analyzed using UPLC/PDA with high resolution mass spectrometry (QE-Orbitrap-MS on DDI mode) to monitor substrate depletion and metabolite formation. The analytical method was optimised by using the parent compounds for optimum chromatographic properties (peak shape and retention) and mass spectrometric ionisation. Disappearance was based on relative LC/MS peak areas (0 min=100%) and will be used to calculate half-lives.

[3] = system: cortical neurons with MPP+ lesion; assay: MPP+ induced ROS in cortical neurons (DCFDA); format: cell-based, mouse; conditions: 0.5 and 1 μM, 8 h MPP+ lesion
Method: (§1) Mouse cortical neurons were prepared as described. At DIV8 cells were treated with the test and control MK801 compounds for 1 h, before the addition of MPP+(Sigma, D048) at a final concentration of 100-200 μM. The experiment was carried out with n=6 technical replicates per condition, vehicle and MPP+ alone controls were included. After 8 h determination of ROS was conducted and after 24 h of MPP+ lesion on DIV9 cells were subject to the apoptosis measurement. Apoptosis was determined using YO-PRO™-1 Iodide (Invitrogen; Y3603). Part of supernatant of the cultivated cells was removed and 10 μL of a 50 μM YO-PRO 1 solution in PBS is added to the remaining 90 μL to result in a final concentration of 5 μM YO-PRO 1 in well. Incubation for 15 min in the incubator at 37° C. was performed (light protected) followed by discarding the supernatant. 140 μL PBS was added to each well and the fluorescence was measured using a plate-reader (Cytation 5, BioTek) at excitation wavelength 485 nm to Emission wavelength 535 nm.
ROS generation was measured with Abcam's DCFDA-Cellular Reactive Oxygen Species Detection Assay (ab 113851). […] Cells were then incubated with the test items and lesion for 8 h and thereafter the fluorescent signal was measured at 485 nm/535 nm (Cytation 5, BioTek).

[4] = system: cortical neurons with MPP+ lesion; assay: MPP+ induced apoptosis in cortical neurons (YO-PRO-1); format: cell-based, mouse; conditions: 0.5 and 1 μM, 24 h MPP+ lesion
Method: as §1

Cox (cytochrome oxidase) = assay: Quantitative PCR of mitochondrial gene Cox; format: cell-based, mouse; conditions: 1 μM and 10 μM, 1 h and 2 h treatment
Method: The effect of Compound A or derivative thereof on the mRNA expression of genes related to plasticity (Arc, cFos, and Zif268) was determined as described. Cox (cytochrome oxidase) was used to evaluate if the derivative changes expression of mitochondrial genes.
Determination of gene expression was performed as previously described [Yang J, et al, Lactate promotes plasticity gene expression by potentiating NMDA signalling in neurons. Proc Natl Acad Sci USA. 2014. 111(33):12228-33]. Total RNA was isolated from cultured cells using Nucleospin RNA II kit (Macherey-Nagel) according to the manufacturer's instructions. The first strand of cDNA was synthesized from 100 ng of total RNA (60 min at 37° C. followed by 5 min at 95° C.) using a high-capacity RNA to cDNA reverse transcription system (Applied Biosystems). One-twentieth of the resulting cDNA was amplified by quantitative PCR (qPCR) with an ABI Prism 7900 system (Applied Biosystems). The PCR mix was composed of 6 ng of cDNA, 300 nM of forward and reverse primers in 10 μL of ix SYBR-Green PCR MasterMix (Applied Biosystems). Primer sequences were designed using Primer Express 3.0 software (Applied Biosystems) and oligonucleotides were synthesized by Microsynth.

Structure (SMILES): O=c1cc(-c2ccc(CCCC[P+](c3ccccc3)(c3ccccc3)c3ccccc3)cc2)oc2c(O)c(O)ccc12 [SND118, 4-[4-(7,8-dihydroxy-4-oxo-chromen-2-yl)phenyl]butyltriphenylphosphonium bromide]
- cell survival upon IAA lesion (MTT) [1]: statistically increase cell survival
- T1/2 plasma Mouse [2]: 13.2 h
- level of ROS induced by MPP+ (DCFDA) [3]: decreased the level of ROS
- apoptosis induced by MPP+ (YO-PRO-1) [4]: significantly inhibited apoptosis
- mRNA expression of Cox (cytochrome oxidase) (Cox (cytochrome oxidase)): unaffected
